Results from the NIST ThermoML archive (doi:10.1021/je050366x).
± gives the expanded uncertainty stated by the source.

Assay: xn = mol fraction of the nth substance listed
Conditions: for surface tension liquid-gas: Ring tensiometer; for mass density: 100 kPa, Liquid

O=C(O)C(=O)O [ethanedioic acid] + O
surface tension liquid-gas (280.2 K, x1 = 0.00716): 73.7 ± 1.2 mN/m
surface tension liquid-gas (280.5 K, x1 = 0.00716): 73.7 ± 1.2 mN/m
surface tension liquid-gas (281.1 K, x1 = 0.00716): 73.8 ± 1.2 mN/m
surface tension liquid-gas (281.2 K, x1 = 0.00716): 73.7 ± 1.2 mN/m
surface tension liquid-gas (283.9 K, x1 = 0.00716): 73.3 ± 1.2 mN/m
surface tension liquid-gas (284.5 K, x1 = 0.00716): 73.2 ± 1.2 mN/m
surface tension liquid-gas (285.1 K, x1 = 0.00716): 73.2 ± 1.2 mN/m
surface tension liquid-gas (285.7 K, x1 = 0.00716): 73 ± 1.2 mN/m
surface tension liquid-gas (288.2 K, x1 = 0.00716): 72.7 ± 1.2 mN/m
surface tension liquid-gas (288.7 K, x1 = 0.00716): 72.4 ± 1.2 mN/m
surface tension liquid-gas (289.7 K, x1 = 0.00716): 72.6 ± 1.2 mN/m
surface tension liquid-gas (290.1 K, x1 = 0.00716): 72.4 ± 1.2 mN/m
surface tension liquid-gas (292.2 K, x1 = 0.00716): 72 ± 1.2 mN/m
surface tension liquid-gas (293 K, x1 = 0.00716): 71.9 ± 1.2 mN/m
surface tension liquid-gas (293.7 K, x1 = 0.00716): 71.9 ± 1.2 mN/m
surface tension liquid-gas (294.3 K, x1 = 0.00716): 71.7 ± 1.2 mN/m
surface tension liquid-gas (296.2 K, x1 = 0.00716): 71.3 ± 1.2 mN/m
surface tension liquid-gas (297.5 K, x1 = 0.00716): 71.2 ± 1.2 mN/m
surface tension liquid-gas (298 K, x1 = 0.00716): 71.2 ± 1.2 mN/m
mass density (298 K, Pycnometric method, x1 = 0.002): 996 ± 1 kg/m3
mass density (298 K, Pycnometric method, x1 = 0.003): 1001 ± 1 kg/m3
mass density (298 K, Pycnometric method, x1 = 0.005): 1008 ± 1 kg/m3
mass density (298 K, Pycnometric method, x1 = 0.007): 1012 ± 1 kg/m3
mass density (298 K, Pycnometric method, x1 = 0.008): 1016 ± 1 kg/m3
mass density (298 K, Pycnometric method, x1 = 0.01): 1019 ± 1 kg/m3
mass density (298 K, Pycnometric method, x1 = 0.012): 1026 ± 1 kg/m3
mass density (298 K, Pycnometric method, x1 = 0.013): 1030 ± 1 kg/m3
mass density (298 K, Pycnometric method, x1 = 0.015): 1034 ± 1 kg/m3
surface tension liquid-gas (298.5 K, x1 = 0.00716): 71.1 ± 1.2 mN/m
surface tension liquid-gas (301.2 K, x1 = 0.00716): 70.4 ± 1.2 mN/m
surface tension liquid-gas (302.1 K, x1 = 0.00716): 70.6 ± 1.2 mN/m
surface tension liquid-gas (302.8 K, x1 = 0.00716): 70.3 ± 1.2 mN/m
surface tension liquid-gas (304.7 K, x1 = 0.00716): 70 ± 1.2 mN/m

O=C(O)CC(O)C(=O)O (stereo not given) [hydroxybutanedioic acid] + O
surface tension liquid-gas (279.3 K, x1 = 0.06): 71 mN/m
surface tension liquid-gas (280.5 K, x1 = 0.06): 70.8 mN/m
surface tension liquid-gas (281.3 K, x1 = 0.06): 70.6 mN/m
surface tension liquid-gas (281.7 K, x1 = 0.06): 70.6 mN/m
surface tension liquid-gas (283.6 K, x1 = 0.06): 70.3 mN/m
surface tension liquid-gas (283.7 K, x1 = 0.06): 70.1 mN/m
surface tension liquid-gas (284.6 K, x1 = 0.06): 70.3 mN/m
surface tension liquid-gas (285 K, x1 = 0.06): 70.2 mN/m
surface tension liquid-gas (288.3 K, x1 = 0.06): 69.7 mN/m
surface tension liquid-gas (288.5 K, x1 = 0.06): 69.5 mN/m
surface tension liquid-gas (289.2 K, x1 = 0.06): 69.7 mN/m
surface tension liquid-gas (289.3 K, x1 = 0.06): 69.5 mN/m
surface tension liquid-gas (292.7 K, x1 = 0.06): 68.7 mN/m
surface tension liquid-gas (293.2 K, x1 = 0.06): 68.7 mN/m
surface tension liquid-gas (293.4 K, x1 = 0.06): 69.1 mN/m
surface tension liquid-gas (293.7 K, x1 = 0.06): 68 mN/m
surface tension liquid-gas (297.1 K, x1 = 0.06): 68.2 mN/m
surface tension liquid-gas (297.2 K, x1 = 0.06): 67.9 mN/m
surface tension liquid-gas (297.6 K, x1 = 0.06): 68.4 mN/m
surface tension liquid-gas (297.7 K, x1 = 0.06): 68 mN/m
surface tension liquid-gas (298 K, x1 = 0.003): 70.3 ± 1.2 mN/m
surface tension liquid-gas (298 K, x1 = 0.007): 70.1 ± 1.2 mN/m
surface tension liquid-gas (298 K, x1 = 0.015): 69.8 ± 1.1 mN/m
surface tension liquid-gas (298 K, x1 = 0.023): 69.3 ± 1.1 mN/m
surface tension liquid-gas (298 K, x1 = 0.032): 69.3 ± 1.1 mN/m
surface tension liquid-gas (298 K, x1 = 0.043): 68.4 ± 1.1 mN/m
surface tension liquid-gas (298 K, x1 = 0.054): 68.4 ± 1.1 mN/m
surface tension liquid-gas (298 K, x1 = 0.058): 68.1 ± 1.1 mN/m
surface tension liquid-gas (298 K, x1 = 0.07): 67.8 ± 1.1 mN/m
surface tension liquid-gas (298 K, x1 = 0.082): 67.3 ± 1.1 mN/m
surface tension liquid-gas (298 K, x1 = 0.087): 66.8 ± 1.1 mN/m
mass density (298 K, x1 = 0.003): 1006 ± 2 kg/m3
mass density (298 K, x1 = 0.015): 1037 ± 2 kg/m3
mass density (298 K, x1 = 0.023): 1051 ± 2 kg/m3
mass density (298 K, x1 = 0.032): 1079 ± 2 kg/m3
mass density (298 K, x1 = 0.054): 1115 ± 2 kg/m3
mass density (298 K, x1 = 0.075): 1146 ± 2 kg/m3
mass density (298 K, x1 = 0.096): 1182 ± 2 kg/m3
surface tension liquid-gas (298.2 K, x1 = 0.06): 67.8 mN/m
surface tension liquid-gas (301.9 K, x1 = 0.06): 67.5 mN/m
surface tension liquid-gas (302.1 K, x1 = 0.06): 68.1 mN/m
surface tension liquid-gas (302.3 K, x1 = 0.06): 67.9 mN/m

O=C(O)CC(=O)O [propanedioic acid] + O
surface tension liquid-gas (278.1 K, x1 = 0.06): 66.5 ± 1.1 mN/m
surface tension liquid-gas (279.3 K, x1 = 0.06): 66 ± 1.1 mN/m
surface tension liquid-gas (279.7 K, x1 = 0.06): 65.9 ± 1.1 mN/m
surface tension liquid-gas (282.6 K, x1 = 0.06): 66 ± 1.1 mN/m
surface tension liquid-gas (285 K, x1 = 0.06): 65.7 ± 1.1 mN/m
surface tension liquid-gas (286.5 K, x1 = 0.06): 65.6 ± 1.1 mN/m
surface tension liquid-gas (287.8 K, x1 = 0.06): 65.4 ± 1.1 mN/m
surface tension liquid-gas (288.7 K, x1 = 0.06): 65.2 ± 1.1 mN/m
surface tension liquid-gas (289.6 K, x1 = 0.06): 65.3 ± 1.1 mN/m
surface tension liquid-gas (290.9 K, x1 = 0.06): 64.6 ± 1.1 mN/m
surface tension liquid-gas (291.1 K, x1 = 0.06): 65 ± 1.1 mN/m
surface tension liquid-gas (293 K, x1 = 0.06): 64.6 ± 1.1 mN/m
surface tension liquid-gas (295.3 K, x1 = 0.06): 64.7 ± 1.1 mN/m
surface tension liquid-gas (296.7 K, x1 = 0.06): 64.1 ± 1.1 mN/m
surface tension liquid-gas (297.1 K, x1 = 0.06): 64.1 ± 1.1 mN/m
surface tension liquid-gas (298 K, x1 = 0.01): 69.2 ± 1.1 mN/m
surface tension liquid-gas (298 K, x1 = 0.017): 68.5 ± 1.1 mN/m
surface tension liquid-gas (298 K, x1 = 0.025): 66.7 ± 1.1 mN/m
surface tension liquid-gas (298 K, x1 = 0.033): 66.7 ± 1.1 mN/m
surface tension liquid-gas (298 K, x1 = 0.04): 65.6 ± 1.1 mN/m
surface tension liquid-gas (298 K, x1 = 0.05): 65.6 ± 1.1 mN/m
surface tension liquid-gas (298 K, x1 = 0.055): 65.5 ± 1.1 mN/m
surface tension liquid-gas (298 K, x1 = 0.065): 65 ± 1.1 mN/m
surface tension liquid-gas (298 K, x1 = 0.07): 64.2 ± 1.1 mN/m
surface tension liquid-gas (298 K, x1 = 0.08): 63.5 ± 1.1 mN/m
surface tension liquid-gas (298 K, x1 = 0.088): 64.2 ± 1.1 mN/m
surface tension liquid-gas (298 K, x1 = 0.094): 63.5 ± 1.1 mN/m
surface tension liquid-gas (298 K, x1 = 0.107): 62.7 ± 1 mN/m
surface tension liquid-gas (298 K, x1 = 0.122): 62.3 ± 1 mN/m
surface tension liquid-gas (298 K, x1 = 0.137): 62.2 ± 1 mN/m
surface tension liquid-gas (298 K, x1 = 0.149): 62.6 ± 1 mN/m
surface tension liquid-gas (298 K, x1 = 0.158): 62.2 ± 1 mN/m
mass density (298 K, Pycnometric method, x1 = 0.009): 1016 ± 1 kg/m3
mass density (298 K, Pycnometric method, x1 = 0.03): 1054 ± 1 kg/m3
mass density (298 K, Pycnometric method, x1 = 0.041): 1068 ± 1 kg/m3
mass density (298 K, Pycnometric method, x1 = 0.055): 1090 ± 1 kg/m3
mass density (298 K, Pycnometric method, x1 = 0.069): 1108 ± 1 kg/m3
mass density (298 K, Pycnometric method, x1 = 0.085): 1129 ± 1 kg/m3
mass density (298 K, Pycnometric method, x1 = 0.102): 1152 ± 1 kg/m3
mass density (298 K, Pycnometric method, x1 = 0.147): 1196 ± 1 kg/m3
surface tension liquid-gas (298.2 K, x1 = 0.06): 63.8 ± 1.1 mN/m
surface tension liquid-gas (299 K, x1 = 0.06): 63.6 ± 1.1 mN/m
surface tension liquid-gas (299.1 K, x1 = 0.06): 63.9 ± 1.1 mN/m
surface tension liquid-gas (301.2 K, x1 = 0.06): 64 ± 1.1 mN/m
surface tension liquid-gas (303.3 K, x1 = 0.06): 63 ± 1.1 mN/m
